In patent publication US20110045101A1, “FUNGICIDAL SUBSTITUTED AZOLES” (E.I. Du Pont De Nemours and Company, priority 2009, published 2011):
Marks after values point to notes of the source that are not given here.

What was measured:
Format in all cases: in vivo
Details in all cases: 100 = 100% disease control
Alternaria solani = test: Test D: tomato early blight, sprayed the day before inoculation, visual disease rating
Procedure, shortened: (§1)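 Acetone solution (3% of final volume) of each compound is suspended in 50/50 acetone/water with 250 ppm Trem® 014. Plants are sprayed to run-off at 200 ppm, equivalent to 500 g/ha, or at 40 ppm for starred values.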

Septoria tritici = test: Test G: wheat leaf blotch on wheat seedlings, sprayed the day before inoculation, visual disease rating
Procedure, shortened: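 Visual disease ratings taken 19 days after transfer to a 20° C growth chamber, following 48 h in saturated atmosphere at 24° C. Seedlings had been sprayed to run-off one day before spore inoculation. Dose 200 ppm, or 40 ppm where starred.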

Septoria nodorum = test: Test F: wheat glume blotch on wheat seedlings, sprayed the day before inoculation, visual disease rating
Procedure, shortened: as §1

[1] = test system: Puccinia recondita f. sp. tritici; test: Test I: wheat leaf rust on wheat seedlings, sprayed the day before inoculation, visual disease rating
Procedure, shortened: as §1

[2] = test system: Erysiphe graminis f. sp. tritici; test: Test J: wheat powdery mildew on wheat seedlings, sprayed the day before inoculation, visual disease rating
Procedure, shortened: as §1

Botrytis cinerea = test: Test C: tomato Botrytis on tomato seedlings, sprayed the day before inoculation, visual disease rating
Procedure, shortened: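 Disease ratings refer to tomato seedlings treated by run-off spraying with compound suspensions, mostly 200 ppm (500 g/ha equivalent) and in marked cases 40 ppm. Carrier: acetone/purified water 50/50 with 250 ppm polyhydric alcohol ester surfactant, after predissolving in acetone.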

[3] = 200 ppm, 0 = no control relative to controls
[4] = 40 ppm (marked *), 0 = no control

Row | Structure (SMILES) | Test D disease control rating (Alternaria solani; [3]) | Test G disease control rating (Septoria tritici; [3]) | Test F disease control rating (Septoria nodorum; [3]) | Test I disease control rating [1, 3] | Test J disease control rating [2, 3] | Test C disease control rating (Botrytis cinerea; [3]) | Test D disease control rating (Alternaria solani; 200 ppm, 0 = no control) | Test G disease control rating (Septoria tritici; 200 ppm, 0 = no control) | Test F disease control rating (Septoria nodorum; 200 ppm, 0 = no control) | Test I disease control rating ([1]; 200 ppm, 0 = no control) | Test J disease control rating ([2]; 200 ppm, 0 = no control) | Test C disease control rating (Botrytis cinerea; 200 ppm, 0 = no control) | further results
1 | Cc1nc(Cl)c(-c2c(F)ccc(F)c2F)n1-c1ccc(F)cc1 [compound 145] | 100% | 100% | 100% | 100% | 100% | 99% |  |  |  |  |  |  | 
2 | Fc1cccc(F)c1-c1c(Cl)nc(Br)n1-c1ccc(Br)cc1 [compound 66] | 100% | 94% | 99% | 99% | 99% | 99% |  |  |  |  |  |  | 
3 | COc1cc(F)c(-n2c(Cl)nc(Br)c2-c2ccc(Cl)cc2)c(F)c1 [compound 214] |  |  |  |  |  |  |  |  |  |  |  |  | Test D disease control rating (Alternaria solani; [4]): 99* %; Test G disease control rating (Septoria tritici; [4]): 94* %; Test F disease control rating (Septoria nodorum; [4]): 97* %; Test I disease control rating [1, 4]: 97* %; Test J disease control rating [2, 4]: 98* %; Test C disease control rating (Botrytis cinerea; [4]): 100* %
4 | COc1cc(F)c(-c2c(C)nc(Cl)n2-c2ccc(Cl)nc2)c(F)c1 [compound 263] |  |  |  |  |  |  | 100% | 95% | 100% | 100% | 100% | 99% | 
5 | Cc1nc(Cl)c(-c2c(F)ccc(F)c2F)n1-c1ccc(Cl)cc1 [compound 48] | 100% | 94% | 100% | 100% | 100% | 99% |  |  |  |  |  |  | 
6 | COc1cc(F)c(-c2c(Cl)nc(C)n2-c2ccc(F)cc2)c(F)c1 [compound 158] |  |  |  |  |  |  | 100% | 97% | 96% | 100% | 100% | 99% | 
7 | Fc1ccc(-n2c(Cl)nc(Cl)c2-c2c(F)cccc2Cl)cc1 [compound 228] |  |  |  |  |  |  | 99% | 98% | 0% | 94% | 99% | 96% | 
8 | Fc1cccc(F)c1-c1c(Cl)nc(Br)n1-c1cccc(Cl)c1 [compound 221] |  |  |  |  |  |  | 99% | 95% | 0% | 97% | 98% | 99% | 
9 | Fc1cccc(F)c1-n1cnc(Cl)c1-c1ccc(Cl)cc1 [compound 163] |  |  |  |  |  |  |  |  |  |  |  |  | Test D disease control rating (Alternaria solani; [4]): 0* %; Test G disease control rating (Septoria tritici; [4]): 10* %; Test F disease control rating (Septoria nodorum; [4]): 0* %; Test I disease control rating [1, 4]: 0* %; Test J disease control rating [2, 4]: 0* %; Test C disease control rating (Botrytis cinerea; [4]): 0* %
10 | C#Cc1nc(Cl)c(-c2c(F)cccc2F)n1-c1cccc(F)c1 [Compound 47, 4-chloro-5-(2,6-difluorophenyl)-2-ethynyl-1-(3-fluorophenyl)-1H-imidazole] |  |  |  |  |  |  |  |  |  |  |  |  | pest or weed control at 200 ppm (Alternaria solani; Alternaria solani, 168 h, 200 ppm, 0 = no control relative to controls): 42%; pest or weed control at 200 ppm (Septoria tritici; Zymoseptoria tritici, 504 h, 200 ppm, 0 = no control relative to controls): 77%; pest or weed control at 200 ppm (Septoria nodorum; Parastagonospora nodorum, 264 h, 200 ppm, 0 = no control relative to controls): 0%; pest or weed control at 200 ppm ([1]; Puccinia recondita, 168 h, 200 ppm, 0 = no control relative to controls): 54%; pest or weed control at 200 ppm ([2]; Blumeria graminis, 168 h, 200 ppm, 0 = no control relative to controls): 93%; pest or weed control at 200 ppm (Botrytis cinerea; Botrytis cinerea, 120 h, 200 ppm, 0 = no control relative to controls): 94%
11 | COc1cc(F)c(-n2c(Cl)nc(Cl)c2-c2ccc(Cl)cc2)c(F)c1 [compound 297] |  |  |  |  |  |  |  |  |  |  |  |  | Test D disease control rating (Alternaria solani; [4]): 100* %; Test G disease control rating (Septoria tritici; [4]): 94* %; Test F disease control rating (Septoria nodorum; [4]): 99* %; Test I disease control rating [1, 4]: 99* %; Test J disease control rating [2, 4]: 100* %; Test C disease control rating (Botrytis cinerea; [4]): 99* %
12 | COc1cc(F)c(-c2c(Cl)nc(Cl)n2-c2ccc(Cl)cc2)c(F)c1 [compound 239] |  |  |  |  |  |  | 100% | 96% | 100% | 99% | 100% | 100% | 
13 | Cc1ccc(-n2cnc(Cl)c2-c2c(F)ccc(F)c2F)cc1 [compound 123] | 99% | 48% | 0% | 90% | 94% | 99% |  |  |  |  |  |  | 
14 | Cc1nc(Cl)c(-c2c(F)cccc2F)n1Cc1ccc(Cl)c(F)c1 [compound 120] | 0% | 96% | 0% | 90% | 92% | 98% |  |  |  |  |  |  | 
15 | Fc1cc(F)c(-n2c(Br)nc(Cl)c2-c2ccc(Cl)cc2)c(F)c1 [compound 131] |  |  |  |  |  |  |  |  |  |  |  |  | Test D disease control rating (Alternaria solani; 40 ppm (marked *)): 99* %; Test G disease control rating (Septoria tritici; 40 ppm (marked *)): 85* %; Test F disease control rating (Septoria nodorum; 40 ppm (marked *)): 0* %; Test I disease control rating ([1]; 40 ppm (marked *)): 0* %; Test J disease control rating ([2]; 40 ppm (marked *)): 48* %; Test C disease control rating (Botrytis cinerea; 40 ppm (marked *)): 90* %
16 | C=Cc1nc(C)n(-c2ccc(Cl)cc2)c1-c1c(F)cccc1F [compound 217] |  |  |  |  |  |  |  |  |  |  |  |  | Test D disease control rating (Alternaria solani; [4]): 57* %; Test G disease control rating (Septoria tritici; [4]): 13* %; Test F disease control rating (Septoria nodorum; [4]): 0* %; Test I disease control rating [1, 4]: 0* %; Test J disease control rating [2, 4]: 0* %; Test C disease control rating (Botrytis cinerea; [4]): 33* %
17 | N#Cc1cc(F)c(-c2c(Cl)nc(Br)n2-c2ccc(Cl)cc2)c(F)c1 [compound 201] |  |  |  |  |  |  | 100% | 98% | 100% | 96% | 100% | 99% | 
18 | Fc1ccc(-n2cnc(Cl)c2-c2c(F)cc(F)cc2F)cc1 [compound 137] | 100% | 98% | 0% | 55% | 97% | 94% |  |  |  |  |  |  | 
19 | Fc1ccc(Br)c(F)c1-c1c(Cl)ncn1-c1ccc(Cl)cc1 [compound 75] | 93% | 95% | 0% | 77% | 98% | 98% |  |  |  |  |  |  | 
20 | Fc1ccc(-n2c(Cl)nc(Cl)c2-c2c(F)ccc(F)c2F)cc1 [compound 129] | 100% | 89% | 0% | 74% | 95% | 99% |  |  |  |  |  |  | 
21 | Fc1ccc(-c2c(Cl)nc(Br)n2-c2ccc(Cl)cc2)c(Cl)c1 [compound 51] | 100% | 94% | 100% | 97% | 99% | 94% |  |  |  |  |  |  | 
22 | COc1ccc(F)c(-c2c(Cl)nc(Br)n2-c2cccc(F)c2)c1F [compound 278] |  |  |  |  |  |  | 100% | 95% | 100% | 100% | 100% | 99% | 
23 | Fc1ccc(-n2c(Br)nc(Cl)c2-c2c(F)cc(F)cc2F)cc1 [compound 152] |  |  |  |  |  |  | 99% | 96% | 69% | 89% | 99% | 99% | 
24 | Cc1ccc(-n2c(C)nc(Cl)c2-c2c(F)cccc2F)cc1F [compound 175] |  |  |  |  |  |  | 97% | 98% | 82% | 100% | 99% | 97% | 
25 | COc1cc(F)c(-c2c(Cl)nc(Br)n2-c2ccc(F)cc2)c(F)c1 [compound 144] | 100% | 100% | 100% | 100% | 100% | 100% |  |  |  |  |  |  | 
26 | COc1cc(F)c(-n2c(C)nc(C)c2-c2ccc(Cl)cc2)c(F)c1 [compound 249] |  |  |  |  |  |  |  |  |  |  |  |  | Test D disease control rating (Alternaria solani; [4]): 99* %; Test G disease control rating (Septoria tritici; [4]): 93* %; Test F disease control rating (Septoria nodorum; [4]): 73* %; Test I disease control rating [1, 4]: 74* %; Test J disease control rating [2, 4]: 81* %; Test C disease control rating (Botrytis cinerea; [4]): 100* %
27 | CCOc1cc(F)c(-c2c(Cl)nc(C)n2-c2ccc(Cl)cc2)c(F)c1 [compound 156] |  |  |  |  |  |  |  |  |  |  |  |  | Test D disease control rating (Alternaria solani; [4]): 100* %; Test G disease control rating (Septoria tritici; [4]): 97* %; Test F disease control rating (Septoria nodorum; [4]): 99* %; Test I disease control rating [1, 4]: 97* %; Test J disease control rating [2, 4]: 99* %; Test C disease control rating (Botrytis cinerea; [4]): 98* %
